# Results: PubChem BioAssay AID624344 (Sanford-Burnham Center for Chemical Genomics, 2012)
# Calls of active or inactive are those of the source. The rule behind the calls is not given here.
# Tests used:
# [1] = inhibitors of PAF-induced NFkB signaling in CF airway cells, dose response, cell-based, uHTS hits, panel, cytotoxicity readout (AID 624344); conditions: CF bronchial epithelial cells, PAF-induced NFkB reporter inhibition; with PAF, mean of runs
# [2] = system: Cytotoxicity; assay: as above; conditions: CF bronchial epithelial cells, mean of runs
Structure (SMILES),IC50 [1],IC50 [2]
COc1ccc(-c2cn[nH]c2-c2ccc(OC)cc2)cc1,2.53 µM,63.5 µM (inactive)
CC1=C(C(=O)OCc2ccc3c(c2)OCO3)C(c2ccc(O)c([N+](=O)[O-])c2)NC(=O)N1 (centres undefined),1.71 µM,> 79 µM (inactive)
O=C(O)/C=C/c1ccc2c(-c3ccccc3)onc2c1,1.81 µM,4.73 µM
NC(=O)c1sc2nc3c(c(-c4ccco4)c2c1N)CCCC3,2.73 µM,44.5 µM
CC1(O)CC(c2ccc(Cl)cc2)=NN1C(=O)c1ccc(Cl)cc1 (centres undefined),5.49 µM,14 µM
CC1CCCCN1c1ncnc(N)c1[N+](=O)[O-] (centres undefined),3.66 µM,> 79 µM (inactive)
CC1(Cc2cccc(F)c2)C(=O)Nc2ccc(-c3cccnc3)cc21 (centres undefined),1.58 µM,67.9 µM (inactive)
COc1cccc(-c2ccc3ncnc(NCc4cc(C)cs4)c3c2)c1,3.86 µM,26.9 µM
C#CCN(C[C@@H]1[C@@H](OC(=O)NC2CC2)[C@@H](OC(=O)NC2CC2)Cn2c(=O)ccc(=O)n21)S(=O)(=O)c1ccc(C)cc1,2.73 µM,19.2 µM
N#CC(C#N)=C1SC(=Nc2ccccc2)C(=Nc2ccccc2)N1c1ccccc1,8.12 µM,12.4 µM
CC(C)(C)C(=O)/C(=C/c1ccncc1)n1cncn1,2.22 µM,15.1 µM
CCC1=C(CC2NCCc3ccccc32)CC2c3cc(OC)c(OC)cc3CCN2C1 (centres undefined),4.34 µM,30 µM
COc1ccc(-n2nnnc2C(CCSC)N2CCC(n3c(=O)[nH]c4ccccc43)CC2)cc1 (centres undefined),6.48 µM,13.7 µM
O=C(NCc1ccco1)c1nc2c(nnn2Cc2ccccc2Cl)c(=O)[nH]1,1.46 µM,5.1 µM
CCC(Oc1ccccc1)C(=O)Nc1ncc([N+](=O)[O-])s1 (centres undefined),9.05 µM,31 µM
Nc1ncnc(N2CCc3ccccc32)c1[N+](=O)[O-],0.651 µM,29.7 µM
Cc1c(C(=O)c2cccc3ccccc23)c2cccc3c2n1[C@H](CN1CCOCC1)CO3,7.9 µM,16.3 µM
COc1ccc(-c2cc(C(F)(F)F)nc(S(=O)(=O)CCCC(=O)Nc3cccnc3Cl)n2)cc1OC,1.44 µM,1.32 µM
C[C@@H]1C[C@@H]([C@H](O)CC2CC(=O)NC(=O)C2)C(=O)[C@@H](C)C1,0.46 µM,11.6 µM
O=C1NC(c2cccc3ccccc23)Nc2ccc(Cl)cc21 (centres undefined),8.66 µM,> 79 µM (inactive)
O=C(CCl)N(Cc1cc(=O)[nH]c2ccccc12)c1ccccc1,1.48 µM,2.98 µM

Structure (SMILES),IC50 [1],IC50 [2]
CCN1CCN(Cc2ccc(NC(=O)c3ccc(C)c(NC(=O)c4ccno4)c3)cc2C(F)(F)F)CC1,< 0.15 µM,> 79 µM (inactive)
O=C(NCCCSc1ccccc1)c1cc(Cl)ccc1O,5.03 µM,7.97 µM
O=C(Nc1ccccc1)c1cc2ccccc2c(=O)s1,5.4 µM,> 79 µM (inactive)
Cc1c(Cl)cccc1NC(=O)CSc1nc2ncc(Cl)cc2[nH]1,10.6 µM,15.5 µM
Cc1nn(-c2nccs2)c2c1C(=O)CC(C)(C)C2Br (centres undefined),5.11 µM,38.8 µM
CCOC(=O)/C=c1/s/c(=C\c2c(OC)ccc3ccccc23)c(=O)n1CC(=O)NCC1CCCO1 (centres undefined),> 79 µM (inactive),> 79 µM (inactive)
COc1ccc(OC)c(-c2nnc3n2N=C(c2ccc(OC)c(OC4CCCC4)c2)CS3)c1,6.47 µM,> 79 µM (inactive)
Cc1c(C(=O)OC2CCCC2)[nH]c2c1C(=O)CC(c1ccco1)C2 (centres undefined),inactive,46.3 µM
CCn1c(=O)c2c(cnn2C)c2ccccc21,2.18 µM,46.2 µM
CNC(=O)c1ccc(NC(=O)C2CCN(c3ncnc4sc(C)c(C)c34)CC2)cc1,5.49 µM,> 79 µM (inactive)
ON=C1c2ccccc2-c2ccccc21,19.5 µM,63 µM (inactive)
COc1ccc(-c2cc(-c3nc4ccccn4c3NCc3ccccc3)ccc2OC)cc1,4.41 µM,5.51 µM
CCOc1ccc(-n2c(C)c(C(C)=O)c3cc(OC(C)=O)ccc32)cc1,0.925 µM,44.5 µM
COc1nc(N)c(C#N)c(-c2ccc(N(C)CCC#N)cc2)c1C#N,3.31 µM,> 79 µM (inactive)
N#Cc1c(-c2ccc(Cl)cc2)n(O)c2ccccc12,2.85 µM,3.98 µM
O=C1OC(Nc2nc(-c3ccc(F)cc3)cs2)c2ccccc21 (centres undefined),2.31 µM,10.7 µM
COc1ccc(-c2cc(NC=O)c3ncc(-c4cc(OC)c(OC)c(OC)c4)n3c2)cc1,> 79 µM (inactive),28.9 µM
CN1CCC(OC(=O)c2cc3cc(Cl)cc(Cl)c3oc2=O)CC1,1.64 µM,44.5 µM
CCCNC(=O)COC(=O)c1ccccc1C(=O)c1ccc(Cl)c([N+](=O)[O-])c1,1.8 µM,7.71 µM
c1nc(N2CCOCC2)c2c3c(sc2n1)CCCC3,6.88 µM,62.3 µM (inactive)
C[C@H]1Cn2cnc(C(=O)Nc3cccc(Cl)c3)c2C(=O)N1,2.26 µM,25.5 µM

Structure (SMILES),IC50 [1],IC50 [2]
COc1ccc(C2CNC(=O)C2)cc1OC1CCCC1 (centres undefined),11.3 µM,40.7 µM
C=C1C(=O)[C@]23C[C@H]1CCC2[C@]1(C)C(=O)CC[C@@](C)(C(=O)O)C1C[C@@H]3O (some centres undefined),0.96 µM,14.4 µM
CC(C)C[C@@H](CN1CCC[C@@H]1CN1C(=S)NC[C@@H]1Cc1ccc(O)cc1)N1C[C@H](Cc2ccc(O)cc2)N(CC2CCCCC2)C1=S,17 µM,18.8 µM
O=C(Nc1nnc(C(F)(F)F)s1)c1ccc(Br)s1,2.28 µM,27.8 µM
COc1ccc(-n2cc(-c3ccccc3)c3c(N4CC(C)OC(C)C4)ncnc32)cc1 (centres undefined),4.95 µM,3.56 µM
COc1ccc(-n2c(C)cc3cc(OC(C)=O)ccc32)cc1,9.18 µM,> 79 µM (inactive)
CCc1ccccc1NC(=O)CN(C)C(=O)Cn1ncc(Cl)c(Cl)c1=O,6.43 µM,38 µM
CCN1CCN(Cc2ccc(NC(=O)c3ccc(C)c(NC(=O)N4CCNC4=O)c3)cc2C(F)(F)F)CC1,1.62 µM,29.2 µM
O=c1c(-c2c(O)cc(O)c3c2O[C@H](c2ccc(O)cc2)CC3)c(-c2ccc(O)cc2)oc2cc(O)cc(O)c12,1.44 µM,5.44 µM
c1cnc2ccc(-n3ccnc3)cc2c1,10.3 µM,60 µM (inactive)
O=[N+]([O-])C1C(c2ccccc2)C12c1ccccc1-c1ccccc12 (centres undefined),inactive,64.1 µM (inactive)
Clc1ccc(Cn2ncc3c(N4CCN(c5ccccc5)CC4)ncnc32)cc1,4.7 µM,5.17 µM
O=C(Nc1cccc(Cl)c1)Nc1csc([N+](=O)[O-])c1,4.12 µM,0.788 µM
Cc1c(O)ccc2c(-c3ccccc3)cc(=O)oc12,3.98 µM,70.9 µM (inactive)
COc1ccc(-c2ccccc2[C@H]2[C@@H]3C=CC[C@@H](C)[C@@H]3C(=O)N2Cc2ccccc2)cc1,13.6 µM,19.6 µM
Cc1cc(C)c(O)c(CN(C)Cc2cc(Cl)cc(Cl)c2O)c1,4.39 µM,9.57 µM
Cc1[nH]nc2ncc(C(=O)c3ccccc3O)cc12,1.68 µM,24.3 µM
CCCCn1nnnc1C(CCc1ccccc1)N1CCC(n2c(=O)[nH]c3ccccc32)CC1 (centres undefined),5.91 µM,12 µM
O=[N+]([O-])c1cccc(NC(=S)Nc2nc(-c3ccccc3Cl)cs2)c1,6.59 µM,10.1 µM
COc1ccc(-c2cnc(N)nc2-c2ccc(OC)cc2O)cc1,4.66 µM,36.5 µM
CC[C@H](CO)Nc1nc(Nc2cccc(Cl)c2)c2ncn(C(C)C)c2n1,3.53 µM,8.91 µM

Structure (SMILES),IC50 [1],IC50 [2]
COc1ccc(-n2nnnc2C(c2cccc(OC)c2OC)N2CCC(n3c(=O)[nH]c4ccccc43)CC2)cc1 (centres undefined),6.65 µM,9.39 µM
Cc1ccc(-c2n[nH]c(=S)n2/N=C/c2ccncc2)cc1,2.63 µM,53.1 µM (inactive)
CS(=O)(=O)c1ccc2nc(NC(=O)CCS(=O)(=O)c3ccccc3)sc2c1,4.88 µM,> 79 µM (inactive)
Cc1cnc(C=O)c2cccc([N+](=O)[O-])c12,3.35 µM,60.6 µM (inactive)
CCSc1nsc(NC(=O)Nc2cccc(OC)c2)n1,4.22 µM,23.3 µM
CC(=O)c1c(C)n(-c2ccccc2)c2ccc(O)cc12,5.58 µM,> 79 µM (inactive)
CC(C)CN=C(NS(=O)(=O)c1ccccc1)C(Cl)(Cl)Cl,2.93 µM,44.5 µM
CC1C(=O)N(Cc2cn(Cc3ccco3)nn2)CCS(=O)(=O)N1Cc1ccc(-c2ccccc2C(F)(F)F)cc1 (centres undefined),14 µM,57.4 µM (inactive)
COc1ccc(-n2nnnc2S(=O)(=O)Cc2ccc(C(=O)O)cc2)cc1,1.05 µM,3.16 µM
CC(=O)OCCCNc1cc(Sc2ccc(Cl)cc2)c2nonc2c1[N+](=O)[O-],13 µM,11.1 µM
COc1cc(NC(=O)Cn2ncc(Cl)c(Cl)c2=O)c(C)cc1[N+](=O)[O-],3.31 µM,3.15 µM
Cc1cc(N2C(=O)C(O)=C(C(=O)c3ccc(C)o3)C2c2cccc(Oc3ccccc3)c2)no1 (centres undefined),10.6 µM,41.7 µM
Cc1ccc2nc(C(F)(F)F)c(C#N)c(N)c2c1,3.26 µM,9.13 µM
O=[N+]([O-])c1ccc2ncnc(N3CCN(Cc4ccc5c(c4)OCO5)CC3)c2c1,2.62 µM,> 79 µM (inactive)
O=c1[nH]c(C2CCN(S(=O)(=O)c3ccc4c(c3)OCCO4)CC2)nc2c1nnn2Cc1c(F)cccc1Cl,5.74 µM,44.5 µM
COc1cc(C2c3cc4c(cc3CC3COC(=O)C32)OCO4)cc(OC)c1O (centres undefined),> 79 µM (inactive),> 79 µM (inactive)
O=C(NCc1nc(-c2ccc(C(F)(F)F)cc2)no1)Nc1cc(Cl)cc(Cl)c1,5.81 µM,5.56 µM
COCc1cc(S(=O)c2ccc(Cl)cc2)nc(C)n1 (centres undefined),3.13 µM,22 µM
CCCCCOC(=O)c1[nH]c2c(c1C)C(=O)CC(c1ccco1)C2 (centres undefined),10.8 µM,> 79 µM (inactive)
